Measured values from patent US10391148B2, “Method of prevention and inhibition of preterm labor” (Wayne State University, priority 2016, dated 2019).

Legend:
Format in all cases: in vivo, mouse
[1] = test system: CD11b+Ly-6G+ neutrophils in uterine tissues; assay: Flow cytometry of uterine neutrophils of LPS-challenged μMT mice; settings: vs PBS; for uterine neutrophil activation (CD11b, CD18, iNOS, ICAM-1, MHC-II, CD62L expression): μMT mice 24 hours after intravenous protein and intraperitoneal LPS
Description: Six to ten-week old virgin female C57BL/6 (WT) or μMT mice were mated with male Balb/c mice. Female mice were examined daily in the early morning for the presence of a vaginal plug, which denoted gestational day (gd) 0.5. In the late morning of gd 16.5, pregnant female mice were intraperitoneally administered with 200 μl sterile PBS or 200 μl sterile PBS containing 0.5, 2.5, 5, 10 or 20 μg lipopolysaccharides (LPS) from Salmonella enterica serotype typhimurium (Sigma-Aldrich L6143). The various doses of LPS were given to the mice randomly. In some experiments, splenic B cells of 5 to 8-week old virgin female WT or IL-10−/− mice were purified using a mouse resting B cell negative isolation kit (Miltenyi Biotec 130-090-862) to 94% to 99% purity as determined by CD19 staining. 107 purified B cells were adoptively transferred in 200 μl sterile PBS into pregnant female μMT mice on gd 14.5 prior to LPS administration on gd 16.5. In some other experiments, 200 μl sterile PBS or 200 μl sterile PBS containing 800 ng recombinant full-length PIBF1 (fPIBF1) (aa 1-757 (SEQ ID NO:11, with an N-terminal glutathione-S-transferase (GST) tag of 232 amino acids, Abnova H00010464-P01) or 300 ng of a recombinant C-terminal fragment of PIBF1 (cPIBF1) (aa 660-755 (SEQ ID NO:12), with an N-terminal glutathione-S-transferase (GST) tag of 232 amino acids, Abnova H00010464-Q01) was intravenously administered to pregnant female μMT mice on gd 16.5 three hours prior to intraperitoneal LPS administration. 24 hours after LPS administration, female mice were examined for delivery and death of delivered pups if delivery occurred. They were then sacrificed for the examination of neonatal/fetal mortality, which was calculated as the total number of dead delivered pups and dead fetuses divided by the total number of implantation sites. […]
Cells were incubated with an Fc blocking reagent and stained at 4° C. with antibodies to various cell surface antigens (Tables 4, 5). […] Events were acquired on an LSR II cytometer (BD Biosciences) and analyzed by FlowJo (Tree Star). […]

[2] = test system: uterine proinflammatory mediators (Tnf, Il6, Mmp9, Cxcl2, Cxcl3, Cxcl5, Il1b, Cxcl10, Ccl3, Cxcl1, Ccl2, Cxcl9 transcripts); assay: qRT-PCR of proinflammatory mediator transcripts in uterine tissues of LPS-challenged μMT mice; settings: 24 hours after intravenous fPIBF1 and 5 μg intraperitoneal LPS, fold change of transcripts
Description: Six to ten-week old virgin female C57BL/6 (WT) or μMT mice were mated with male Balb/c mice. Female mice were examined daily in the early morning for the presence of a vaginal plug, which denoted gestational day (gd) 0.5. In the late morning of gd 16.5, pregnant female mice were intraperitoneally administered with 200 μl sterile PBS or 200 μl sterile PBS containing 0.5, 2.5, 5, 10 or 20 μg lipopolysaccharides (LPS) from Salmonella enterica serotype typhimurium (Sigma-Aldrich L6143). The various doses of LPS were given to the mice randomly. In some experiments, splenic B cells of 5 to 8-week old virgin female WT or IL-10−/− mice were purified using a mouse resting B cell negative isolation kit (Miltenyi Biotec 130-090-862) to 94% to 99% purity as determined by CD19 staining. 107 purified B cells were adoptively transferred in 200 μl sterile PBS into pregnant female μMT mice on gd 14.5 prior to LPS administration on gd 16.5. […] They were then sacrificed for the examination of neonatal/fetal mortality, which was calculated as the total number of dead delivered pups and dead fetuses divided by the total number of implantation sites. […]

[3] = test system: pregnant female μMT mice (LPS-induced PTL); assay: LPS-induced preterm labor in pregnant μMT mice: preterm delivery and neonatal/fetal mortality; settings: read on gd 17.5, fPIBF1 1 μg (800 ng in method), cPIBF1 300 ng, vs PBS
Description: Six to ten-week old virgin female C57BL/6 (WT) or μMT mice were mated with male Balb/c mice. Female mice were examined daily in the early morning for the presence of a vaginal plug, which denoted gestational day (gd) 0.5. In the late morning of gd 16.5, pregnant female mice were intraperitoneally administered with 200 μl sterile PBS or 200 μl sterile PBS containing 0.5, 2.5, 5, 10 or 20 μg lipopolysaccharides (LPS) from Salmonella enterica serotype typhimurium (Sigma-Aldrich L6143). The various doses of LPS were given to the mice randomly. In some experiments, splenic B cells of 5 to 8-week old virgin female WT or IL-10−/− mice were purified using a mouse resting B cell negative isolation kit (Miltenyi Biotec 130-090-862) to 94% to 99% purity as determined by CD19 staining. 107 purified B cells were adoptively transferred in 200 μl sterile PBS into pregnant female μMT mice on gd 14.5 prior to LPS administration on gd 16.5. In some other experiments, 200 μl sterile PBS or 200 μl sterile PBS containing 800 ng recombinant full-length PIBF1 (fPIBF1) (aa 1-757 (SEQ ID NO:11, with an N-terminal glutathione-S-transferase (GST) tag of 232 amino acids, Abnova H00010464-P01) or 300 ng of a recombinant C-terminal fragment of PIBF1 (cPIBF1) (aa 660-755 (SEQ ID NO:12), with an N-terminal glutathione-S-transferase (GST) tag of 232 amino acids, Abnova H00010464-Q01) was intravenously administered to pregnant female μMT mice on gd 16.5 three hours prior to intraperitoneal LPS administration. 24 hours after LPS administration, female mice were examined for delivery and death of delivered pups if delivery occurred. They were then sacrificed for the examination of neonatal/fetal mortality, which was calculated as the total number of dead delivered pups and dead fetuses divided by the total number of implantation sites. Uteri were collected, briefly washed in PBS and processed for RNA and protein extraction or flow cytometry. The people performing the analysis were not blinded to the genotype or treatment of the mice.
The sample size was calculated based on the effect size derived from preliminary data at 5% significance level and 80% power using the software G*Power 3.1. Sample availability exceeded the estimated sample size. Results are expressed as mean±S.E.M. Percentage data were subjected to square root transformation prior to statistical analysis to verify test assumptions of equal variance. Statistical difference in the rate of PTL between different strains of mice or different treatment groups was assessed by Fisher's exact test. Statistical difference in neonatal/fetal mortality was assessed by Mann-Whitney U test. For flow cytometry and qRT-PCR data, Shapiro-Wilk test was used to determine the normality of the data. Statistical significance was assessed by Student's t-test for normally distributed data and Mann-Whitney U test for non-normally distributed data. p values <0.05 were considered statistically significant.

fPIBF1: recombinant full-length PIBF1, aa 1-757, SEQ ID NO:11, N-terminal GST tag of 232 amino acids, Abnova H00010464-P01
neutrophil infiltration into the uterus (frequency of CD11b+Ly-6G+ neutrophils in CD45+ cells) ([1]; gd 17.5 μMT mice after intravenous protein and intraperitoneal LPS on gd 16.5): inhibited | uterine neutrophil activation (CD11b, CD18, iNOS, ICAM-1, MHC-II, CD62L expression) [1]: reduced activation | uterine neutrophil activation (CD11b, CD18, iNOS, ICAM-1, MHC-II, CD62L expression) ([1]; listed as full-length PIBF1): reduces | uterine induction of proinflammatory mediators (uterine inflammation) [2]: suppressed | uterine induction of proinflammatory mediators (uterine inflammation) ([2]; listed as full-length PIBF1): reduces | neonatal/fetal mortality ([3]; protein intravenous on gd 16.5 before 5 μg intraperitoneal LPS): significantly reduced | rate of preterm delivery (PTL) ([3]; protein intravenous on gd 16.5 three hours before 5 μg intraperitoneal LPS): significantly reduced
